Legend:
[1] = log P by HPLC on a reversed-phase column (C 18), EEC Directive 79/831 Annex V.A8; type: physicochemical
Excerpt: Called log P (HCOOH) in the table.
Called log P (neutral) in the table.

[2] = test system: caterpillars of the armyworm (Spodoptera frugiperda); assay: Spodoptera frugiperda - spray test; type: in vivo; settings: maize leaf discs, after 7 days
Protocol: Solvent: 78.0 parts by weight of acetone • • 1.5 parts by weight of dimethylformamide Emulsifier: alkylaryl polyglycol ether […] To produce further test concentrations, the formulation is diluted with emulsifier-containing water. Leaf discs of maize (Zea mays) are sprayed with an active compound preparation of the desired concentration and, after drying, populated with caterpillars of the armyworm (Spodoptera frugiperda).

[3] = test system: larvae of the mustard beetle (Phaedon cochleariae); assay: Phaedon cochleariae - spray test; type: in vivo; settings: after 7 days
Protocol: Solvent: 78.0 parts by weight of acetone • • 1.5 parts by weight of dimethylformamide
Emulsifier: alkylaryl polyglycol ether
(§1) To produce a suitable active compound formulation, 1 part by weight of active compound is dissolved with the stated parts by weight of solvent and made up with water containing an emulsifier concentration of 1000 ppm until the desired concentration is attained. To produce further test concentrations, the formulation is diluted with emulsifier-containing water.
Discs of Chinese cabbage leaves (Brassica pekinensis) are sprayed with an active compound formulation of the desired concentration and, after drying, populated with larvae of the mustard beetle (Phaedon cochleariae).
After 7 days, the efficacy in % is determined. 100% means that all the beetle larvae have been killed and 0% means that none of the beetle larvae have been killed.

[4] = test system: green peach aphid (Myzus persicae); assay: Myzus persicae - spray test (Chinese cabbage leaf discs); type: in vivo; settings: application rate 500 g/ha, after 5 days
Protocol: Solvent: 78 parts by weight of acetone • • 1.5 parts by weight of dimethylformamide Emulsifier: alkylaryl polyglycol ether
as §1
Discs of Chinese cabbage leaves (Brassica pekinensis) infested by all stages of the green peach aphid (Myzus persicae) are sprayed with an active compound formulation of the desired concentration.
After 5 days, the efficacy in % is determined. 100% means that all the aphids have been killed and 0% means that none of the aphids have been killed.

[5] = test system: L1 larvae of the Australian sheep blowfly (Lucilia cuprina); assay: Lucilia cuprina test; type: in vivo; settings: application rate 100 ppm; after 2 days
Protocol: Solvent: dimethyl sulphoxide
To produce a suitable active compound formulation, 10 mg of active compound are mixed with 0.5 ml of dimethyl sulphoxide, and the concentrate is diluted with water to the desired concentration.
About 20 L1 larvae of the Australian sheep blowfly (Lucilia cuprina) are transferred into a test vessel containing minced horsemeat and the active compound formulation of the desired concentration.
After 2 days, the kill in % is determined. 100% means that all the larvae have been killed; 0% means that no larvae have been killed.

[6] = acidic range, pH 2.7, 0.1% aqueous formic acid/acetonitrile, 55° C.
[7] = neutral range, pH 7.8, 0.001 molar aqueous ammonium hydrogencarbonate/acetonitrile, 55° C.

CCS(=O)(=O)c1ccc(-n2c(=O)n(C)c3ccccc32)nc1-c1nc2cc(C(F)(F)F)ncc2n1C [Example I-44]
LOGP_HCOOH (log P (HCOOH)) ([1]; pH 2.7): 3.10
LOGP_NEUTRAL (log P (neutral)) ([1]; pH 7.8): 3.06

CCS(=O)(=O)c1ccc(-n2ncc3cc(Cl)ccc32)nc1-c1nc2cc(C(F)(F)F)ncc2n1C [Example I-9]
LOGP_HCOOH (log P (HCOOH)) ([1]; pH 2.7): 4.03
LOGP_NEUTRAL (log P (neutral)) ([1]; pH 7.8): 4.03

CCS(=O)(=O)c1ccc(-n2nnc3ccc(Cl)cc32)nc1-c1nc2cc(C(F)(F)F)ncc2n1C [Example I-49]
efficacy ([2]; application rate 100 g/ha): 100%
LOGP_HCOOH (log P (HCOOH)) [1, 6]: 3.74
LOGP_NEUTRAL (log P (neutral)) [1, 7]: 3.74
efficacy ([3]; application rate 100 g/ha): 100%

CCS(=O)(=O)c1ccc(-n2cnc3ccc(Cl)nc32)nc1-c1nc2cc(C(F)(F)F)ncc2n1C [Example I-33]
efficacy ([2]; application rate 100 g/ha): 100%
efficacy ([2]; application rate 500 g/ha): 100%
efficacy [4]: 90%
LOGP_HCOOH (log P (HCOOH)) ([1]; pH 2.7): 3.25
LOGP_NEUTRAL (log P (neutral)) ([1]; pH 7.8): 3.20
efficacy ([3]; application rate 100 g/ha): 100%
efficacy ([3]; application rate 500 g/ha): 100%

CCS(=O)(=O)c1ccc(-n2ncc3cccc(Cl)c32)nc1-c1nc2cc(C(F)(F)F)ncc2n1C [Example I-8]
LOGP_HCOOH (log P (HCOOH)) [1, 6]: 3.44
LOGP_NEUTRAL (log P (neutral)) [1, 7]: 3.34

CCS(=O)(=O)c1ccc(-c2cc3ccccc3n2C)nc1-c1nc2cc(C(F)(F)F)ncc2n1C [Example I-4]
efficacy (kill) [5]: 90%
LOGP_HCOOH (log P (HCOOH)) ([1]; pH 2.7): 3.90
LOGP_NEUTRAL (log P (neutral)) ([1]; pH 7.8): 3.83

CCS(=O)(=O)c1ccc(-n2ccc3ncccc32)nc1-c1nc2cc(C(F)(F)F)ncc2n1C [Example I-20]
LOGP_HCOOH (log P (HCOOH)) [1, 6]: 1.75
LOGP_NEUTRAL (log P (neutral)) [1, 7]: 2.47

CCS(=O)(=O)c1ccc(-n2ccc3cccnc32)nc1-c1nc2cc(C(F)(F)F)ncc2n1C [Example I-29]
efficacy (kill) [5]: 100%
efficacy ([2]; application rate 100 g/ha): 100%
efficacy ([2]; application rate 500 g/ha): 100%
LOGP_HCOOH (log P (HCOOH)) ([1]; pH 2.7): 3.76
LOGP_NEUTRAL (log P (neutral)) ([1]; pH 7.8): 3.74

CCS(=O)(=O)c1ccc(-c2cccc3nn(C)cc23)nc1-c1nc2cc(C(F)(F)F)ncc2n1C [Example I-16]
LOGP_HCOOH (log P (HCOOH)) ([1]; pH 2.7): 2.73
LOGP_NEUTRAL (log P (neutral)) ([1]; pH 7.8): 2.67
efficacy ([3]; application rate 500 g/ha): 83%

CCS(=O)(=O)c1ccc(-n2c(=O)[nH]c3ccccc32)nc1-c1nc2cc(C(F)(F)F)ncc2n1C [Example I-45]
LOGP_HCOOH (log P (HCOOH)) ([1]; pH 2.7): 2.59
LOGP_NEUTRAL (log P (neutral)) ([1]; pH 7.8): 2.62

CCS(=O)(=O)c1ccc(-n2ccc3ccc(Cl)cc32)nc1-c1nc2cc(C(F)(F)F)ncc2n1C [Example I-23]
efficacy [4]: 90%
LOGP_HCOOH (log P (HCOOH)) ([1]; pH 2.7): 4.04
LOGP_NEUTRAL (log P (neutral)) ([1]; pH 7.8): 4.04

CCS(=O)(=O)c1ccc(-n2cnc3ccc(OC)cc32)nc1-c1nc2cc(C(F)(F)F)ncc2n1C [Example I-30]
LOGP_HCOOH (log P (HCOOH)) ([1]; pH 2.7): 2.69
LOGP_NEUTRAL (log P (neutral)) ([1]; pH 7.8): 2.67

CCS(=O)(=O)c1ccc(-n2cccc3oc(=O)nc2-3)nc1-c1nc2cc(C(F)(F)F)ncc2n1C [Example I-51]
LOGP_HCOOH (log P (HCOOH)) ([1]; pH 2.7): 2.09
LOGP_NEUTRAL (log P (neutral)) ([1]; pH 7.8): 2.08

CCS(=O)(=O)c1ccc(-n2nnc3cc(Cl)ccc32)nc1-c1nc2cc(C(F)(F)F)ncc2n1C [Example I-50]
efficacy ([2]; application rate 100 g/ha): 100%
LOGP_HCOOH (log P (HCOOH)) [1, 6]: 3.72
LOGP_NEUTRAL (log P (neutral)) [1, 7]: 3.77
efficacy ([3]; application rate 100 g/ha): 100%

CCS(=O)(=O)c1ccc(-n2c(=O)[nH]c3cc(Cl)ccc32)nc1-c1nc2cc(C(F)(F)F)ncc2n1C [Example I-47]
LOGP_HCOOH (log P (HCOOH)) ([1]; pH 2.7): 3.05

Reference: patent US10375962B2, “Heterocycle derivatives as pesticides” (BAYER CROPSCIENCE AKTIENGESELLSCHAFT, priority 2016, dated 2019)
